The source made the active and inactive calls. The calls are words filed in the database; no cut-off is given here. Where a SMILES comes first, the peptide text is derived from it. Bridges are numbered along the chain shown (N, C = ends). [ ]: non-standard residue; d: D form. The star is where a group is joined. NMeF = CN[C@@H](Cc1ccccc1)C(=O)O; NMeV = CN[C@H](C(=O)O)C(C)C; X2 = CC[C@H](C)CCCCC(=O)*; dDab = NCC[C@@H](N)C(=O)O; Dab = NCC[C@H](N)C(=O)O; Butyryl = CCCC(=O)*; X1 = CN(Cc1nccs1)*

The inhibition is the percentage by which the read-out fell short of the control. Broadly, the IC50 is the concentration that gives 50% inhibition. Read a high IC50 as weaker potency.

The test system of series [1] is RAW264.7. Kind of series: Inhibition of LPS-induced degraded IkappaBalpha regeneration in mouse RAW264.7 cells at 10 uM measured upto 90 mins by Western blot analysis. In kind it is functional, cell-based. For orientation: In western blotting, separated proteins are transferred to a membrane and probed.
Series [2] has as its system RAW264.7. Kind of series: Inhibition of LPS-induced IkappaBalpha degradation in mouse RAW264.7 cells at 1 to 30 uM incubated for 30 mins by Western blot analysis. It is filed as functional, cell-based.
Series [3] has as its system RAW264.7. The series can be described thus: Inhibition of LPS-induced iNOS expression in mouse RAW264.7 cells at preincubated for 1 hr followed by LPS stimulation and measured after 24 hrs by Western blot analysis. It is filed as functional, cell-based.
Series [4] concerns RAW264.7. The series can be described thus: Inhibition of LPS-induced TNFalpha production in mouse RAW264.7 cells at 1 to 30 uM preincubated for 1 hr followed by LPS stimulation and measured after 24 hrs by ELISA. It is filed as functional, cell-based.
Series [5] concerns RAW264.7. Kind of series: Inhibition of LPS-induced IL-6 production in mouse RAW264.7 cells at 1 to 30 uM preincubated for 1 hr followed by LPS stimulation and measured after 24 hrs by ELISA. It is filed as functional, cell-based. On the technique in general: ELISA stands for enzyme-linked immunosorbent assay.
The test system of series [6] is RAW264.7. Kind of series: Inhibition of LPS-induced IL-1beta production in mouse RAW264.7 cells preincubated for 1 hr followed by LPS stimulation and measured after 24 hrs by ELISA. It is filed as functional, cell-based.
The subject of series [7] is RAW264.7. Kind of series: Cytotoxicity against mouse RAW264.7 cells assessed as reduction in cell viability upto 30 uM incubated for 24 hrs in presence of LPS by MTT assay. In kind it is cell-based. As to conditions: raw264.7, 24 h. In general terms: Formazan colour is commonly taken as a measure of viable cells.
Series [8] concerns RAW264.7. The series can be described thus: Inhibition of LPS-induced NO production in mouse RAW264.7 cells preincubated for 1 hr followed by LPS stimulation and measured after 24 hrs by Griess reagent based assay. It is filed as functional, cell-based.
The test system of series [9] is RAW264.7. Kind of series: Inhibition of LPS-induced iNOS expression in mouse RAW264.7 cells at 1 uM preincubated for 1 hr followed by LPS stimulation and measured after 24 hrs by Western blot analysis relative to control. In kind it is functional.
Series [10] deals with RAW264.7. Kind of series: Inhibition of LPS-induced IkappaBalpha degradation in mouse RAW264.7 cells at 1 uM incubated for 30 mins by Western blot analysis. It is filed as functional, cell-based.
Series [11] concerns RAW264.7. Kind of series: Inhibition of LPS-induced TNFalpha production in mouse RAW264.7 cells at 1 uM preincubated for 1 hr followed by LPS stimulation and measured after 24 hrs by ELISA. It is filed as functional, cell-based.
For series [12], the system named is RAW264.7. The series can be described thus: Inhibition of LPS-induced IL-6 production in mouse RAW264.7 cells at 1 uM preincubated for 1 hr followed by LPS stimulation and measured after 24 hrs by ELISA. In kind it is functional, cell-based.
Series [13] relates to RAW264.7. The series can be described thus: Inhibition of LPS-induced IL-1beta production in mouse RAW264.7 cells at 1 uM preincubated for 1 hr followed by LPS stimulation and measured after 24 hrs by ELISA. It is filed as functional, cell-based.
For series [14], the system named is RAW264.7. Kind of series: Inhibition of LPS-induced NO production in mouse RAW264.7 cells at 0.1 to 10 uM preincubated for 1 hr followed by LPS stimulation and measured after 24 hrs by Griess reagent based assay. In kind it is functional, cell-based.

Take `CCCC(=O)N(C)[C@H](C(=O)N1CCC[C@H]1C(=O)N(C)[C@@H](Cc1ccccc1)C(=O)N[C@@H](CC(C)C)C(=O)N(C)[C@H](C(=O)N(C)Cc1nccs1)C(C)C)C(C)C` (Butyryl-[NMeV]P[NMeF]L[NMeV]-X1): the inhibition entry in the series on RAW264.7 [1] is “Active”. The inhibition result in the series with RAW264.7 [2], in the series with RAW264.7 [4] and in the series on RAW264.7 [5] was “inactive” in each case. Further, the inhibition result in the series with RAW264.7 [3], in the series on RAW264.7 [6] and in the series on RAW264.7 [8] was “Dose-dependent effect” each time. Moreover, the IC50 with RAW264.7 [6] was determined as 14.5 µM; with RAW264.7 [8] it was 6.47 µM. Further, the Activity result with RAW264.7 [7] is given as “Non-Toxic”.
In turn, `CC[C@H](C)CCCCC(=O)N[C@@H](CCN)C(=O)N[C@H](C(=O)N[C@@H](CCN)C(=O)N[C@H]1CCNC(=O)[C@H]([C@@H](C)O)NC(=O)[C@H](CCN)NC(=O)[C@H](CCN)NC(=O)[C@H](CC(C)C)NC(=O)[C@@H](Cc2ccccc2)NC(=O)[C@H](CCN)NC1=O)[C@@H](C)O` (X2-[Dab]T[Dab][Dab][Dab][dF]L[Dab][Dab]T; lactam 4-C) had an inhibition at 1 µM in the series on RAW264.7 [9] of 100%.
In the case of `CC[C@H](C)CCCCC(=O)N[C@@H](CCN)C(=O)N[C@H](C(=O)N[C@@H](CCN)C(=O)N[C@H]1CCNC(=O)[C@H]([C@@H](C)O)NC(=O)[C@H](CCN)NC(=O)[C@H](CCN)NC(=O)[C@H](CC(C)C)NC(=O)[C@@H](Cc2ccccc2)NC(=O)[C@@H](CCN)NC1=O)[C@@H](C)O` (X2-[Dab]T[Dab][Dab][dDab][dF]L[Dab][Dab]T; lactam 4-C), the inhibition entry with RAW264.7 [10], in the series with RAW264.7 [11], with RAW264.7 [12], in the series with RAW264.7 [13] and in the series with RAW264.7 [14] was “Active” each time.

The values are drawn from ChEMBL document CHEMBL4627336, “Inhibitory effects of biseokeaniamide A against lipopolysaccharide-induced signal transduction” (Bioorg Med Chem Lett, 2020).
